# Reference: patent publication US8802597B2, “Herbicidal pyrimidines” (E I du Pont de Nemours and Company, priority 2003, dated 2014)
# Where two headings read alike, the source gives them in different places.
# Tests used:
# Test in all cases: Test C pre/postemergence
# Type in all cases: in vivo
# [1] = tested on: common ragweed (Ambrosia elatior); conditions: Ambrosia artemisiifolia, pre-emergence, Preemergence, read-out: Plant response rating, Ragweed
# How it was run: (§1)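 Visual injury ratings, 0 (no effect) to 100 (complete control), made 12 to 14 days after treatment by comparison with untreated controls. Greenhouse plants received test chemical in a surfactant-containing non-phytotoxic solvent, either preemergence on planted seeds or postemergence at the 1- to 4-leaf stage.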
# [2] = tested on: pigweed (Amaranthus retroflexus); conditions: Amaranthus retroflexus; for pest or weed control at 31 g/ha: 31 g ai/ha; for pest or weed control at 62 g/ha: 62 g ai/ha; for pest or weed control at 125 g/ha: 125 g ai/ha; for pest or weed control at 250 g/ha: 250 g ai/ha
# How it was run: as §1
# [3] = tested on: bermudagrass (Cynodon dactylon); conditions: Cynodon dactylon; for pest or weed control at 31 g/ha: 31 g ai/ha; for pest or weed control at 62 g/ha: 62 g ai/ha; for pest or weed control at 125 g/ha: 125 g ai/ha; for pest or weed control at 250 g/ha: 250 g ai/ha
# How it was run: as §1
# [4] = tested on: johnsongrass (Sorghum halepense); conditions: Sorghum halepense; for pest or weed control at 31 g/ha: 31 g ai/ha; for pest or weed control at 62 g/ha: 62 g ai/ha; for pest or weed control at 125 g/ha: 125 g ai/ha; for pest or weed control at 250 g/ha: 250 g ai/ha
# How it was run: as §1
# kochia (Kochia scoparia) = conditions: Bassia scoparia; for pest or weed control at 31 g/ha: 31 g ai/ha; for pest or weed control at 62 g/ha: 62 g ai/ha; for pest or weed control at 125 g/ha: 125 g ai/ha; for pest or weed control at 250 g/ha: 250 g ai/ha
# How it was run: as §1
# [5] = tested on: cocklebur (Xanthium strumarium); conditions: Xanthium strumarium; for pest or weed control at 31 g/ha: 31 g ai/ha; for pest or weed control at 62 g/ha: 62 g ai/ha; for pest or weed control at 125 g/ha: 125 g ai/ha; for pest or weed control at 250 g/ha: 250 g ai/ha
# How it was run: as §1
# [6] = post-emergence, Postemergence, scale 0 to 100 (0 no effect, 100 complete control), read-out: Pigweed plant response rating
# [7] = pre-emergence, Preemergence, scale 0 to 100, 0 no effect, 100 complete control, read-out: Plant response rating, Pigweed
# [8] = pre-emergence, Preemergence, scale 0 to 100, read-out: Plant response rating, Pigweed
# [9] = post-emergence, Postemergence, scale 0 to 100 (0 no effect, 100 complete control), read-out: Bermudagrass plant response rating
# [10] = pre-emergence, Preemergence, scale 0 to 100, 0 no effect, 100 complete control, read-out: Plant response rating, Bermudagrass
# [11] = pre-emergence, Preemergence, scale 0 to 100, read-out: Plant response rating, Bermudagrass
# [12] = post-emergence, Postemergence, scale 0 to 100 (0 no effect, 100 complete control), read-out: Johnsongrass plant response rating
# [13] = pre-emergence, Preemergence, scale 0 to 100, 0 no effect, 100 complete control, read-out: Plant response rating, Johnsongrass
# [14] = pre-emergence, Preemergence, scale 0 to 100, read-out: Plant response rating, Johnsongrass
# [15] = post-emergence, Postemergence, scale 0 to 100 (0 no effect, 100 complete control), read-out: Kochia plant response rating
# [16] = pre-emergence, Preemergence, scale 0 to 100, 0 no effect, 100 complete control, read-out: Plant response rating, Kochia
# [17] = pre-emergence, Preemergence, scale 0 to 100, read-out: Plant response rating, Kochia
# [18] = post-emergence, Postemergence, scale 0 to 100 (0 no effect, 100 complete control), read-out: Cocklebur plant response rating
# [19] = pre-emergence, Preemergence, scale 0 to 100, 0 no effect, 100 complete control, read-out: Plant response rating, Cocklebur
# [20] = pre-emergence, Preemergence, scale 0 to 100, read-out: Plant response rating, Cocklebur
smiles,measurement,setting,value
CCOC(=O)c1nc(C2CC2)nc(N)c1F [Compound 30],pest or weed control at 31 g/ha,"[1]; 31 g ai/ha, scale 0 to 100, 0 no effect, 100 complete control",30%
same,pest or weed control at 62 g/ha,"[1]; 62 g ai/ha, scale 0 to 100, 0 no effect, 100 complete control",85%
same,pest or weed control at 125 g/ha,"[1]; 125 g ai/ha, scale 0 to 100",90%
same,pest or weed control at 250 g/ha,"[1]; 250 g ai/ha, scale 0 to 100",100%
same,pest or weed control at 31 g/ha,"[2]; post-emergence, Postemergence, read-out: Plant response rating (scale of 0 to 100), Pigweed",60%
same,pest or weed control at 62 g/ha,[2]; [6],70%
same,pest or weed control at 125 g/ha,[2]; [6],80%
same,pest or weed control at 250 g/ha,"[2]; post-emergence, Postemergence, scale 0 to 100, read-out: Plant response rating, Pigweed",90%
same,pest or weed control at 31 g/ha,[2]; [7],0%
same,pest or weed control at 62 g/ha,[2]; [7],30%
same,pest or weed control at 125 g/ha,[2]; [8],80%
same,pest or weed control at 250 g/ha,[2]; [8],90%
same,pest or weed control at 31 g/ha,"[3]; post-emergence, Postemergence, read-out: Plant response rating (scale of 0 to 100), Bermudagrass",0%
same,pest or weed control at 62 g/ha,[3]; [9],0%
same,pest or weed control at 125 g/ha,[3]; [9],5%
same,pest or weed control at 250 g/ha,"[3]; post-emergence, Postemergence, scale 0 to 100, read-out: Plant response rating, Bermudagrass",5%
same,pest or weed control at 31 g/ha,[3]; [10],0%
same,pest or weed control at 62 g/ha,[3]; [10],0%
same,pest or weed control at 125 g/ha,[3]; [11],0%
same,pest or weed control at 250 g/ha,[3]; [11],0%
same,pest or weed control at 31 g/ha,"[4]; post-emergence, Postemergence, read-out: Plant response rating (scale of 0 to 100), Johnsongrass",0%
same,pest or weed control at 62 g/ha,[4]; [12],5%
same,pest or weed control at 125 g/ha,[4]; [12],10%
same,pest or weed control at 250 g/ha,"[4]; post-emergence, Postemergence, scale 0 to 100, read-out: Plant response rating, Johnsongrass",40%
same,pest or weed control at 31 g/ha,[4]; [13],0%
same,pest or weed control at 62 g/ha,[4]; [13],0%
same,pest or weed control at 125 g/ha,[4]; [14],5%
same,pest or weed control at 250 g/ha,[4]; [14],5%
same,pest or weed control at 31 g/ha,"kochia (Kochia scoparia); post-emergence, Postemergence, read-out: Plant response rating (scale of 0 to 100), Kochia",55%
same,pest or weed control at 62 g/ha,kochia (Kochia scoparia); [15],90%
same,pest or weed control at 125 g/ha,kochia (Kochia scoparia); [15],100%
same,pest or weed control at 250 g/ha,"kochia (Kochia scoparia); post-emergence, Postemergence, scale 0 to 100, read-out: Plant response rating, Kochia",100%
same,pest or weed control at 31 g/ha,kochia (Kochia scoparia); [16],50%
same,pest or weed control at 62 g/ha,kochia (Kochia scoparia); [16],70%
same,pest or weed control at 125 g/ha,kochia (Kochia scoparia); [17],70%
same,pest or weed control at 250 g/ha,kochia (Kochia scoparia); [17],90%
same,pest or weed control at 31 g/ha,"[5]; post-emergence, Postemergence, read-out: Plant response rating (scale of 0 to 100), Cocklebur",90%
same,pest or weed control at 62 g/ha,[5]; [18],95%
same,pest or weed control at 125 g/ha,[5]; [18],100%
same,pest or weed control at 250 g/ha,"[5]; post-emergence, Postemergence, scale 0 to 100, read-out: Plant response rating, Cocklebur",100%
same,pest or weed control at 31 g/ha,[5]; [19],0%
same,pest or weed control at 62 g/ha,[5]; [19],60%
same,pest or weed control at 125 g/ha,[5]; [20],85%
same,pest or weed control at 250 g/ha,[5]; [20],90%
